# Patent publication US20240316047A1, “INHIBITORS OF RNA HELICASE DHX9 AND USES THEREOF” (ACCENT THERAPEUTICS, INC., priority 2022, published 2024)
# Molecular target: Human recombinant DHX9 protein (Homo sapiens (Human), UniProt Q08211)
# Experiment: DHX9 ATPase assay (ADP-Glo)
# Format: biochemical
# Conditions: for IC50: read-out: DHX9 Biochemical Inflection Point
# Human recombinant DHX9 protein, sequence (Q08211 whole entry): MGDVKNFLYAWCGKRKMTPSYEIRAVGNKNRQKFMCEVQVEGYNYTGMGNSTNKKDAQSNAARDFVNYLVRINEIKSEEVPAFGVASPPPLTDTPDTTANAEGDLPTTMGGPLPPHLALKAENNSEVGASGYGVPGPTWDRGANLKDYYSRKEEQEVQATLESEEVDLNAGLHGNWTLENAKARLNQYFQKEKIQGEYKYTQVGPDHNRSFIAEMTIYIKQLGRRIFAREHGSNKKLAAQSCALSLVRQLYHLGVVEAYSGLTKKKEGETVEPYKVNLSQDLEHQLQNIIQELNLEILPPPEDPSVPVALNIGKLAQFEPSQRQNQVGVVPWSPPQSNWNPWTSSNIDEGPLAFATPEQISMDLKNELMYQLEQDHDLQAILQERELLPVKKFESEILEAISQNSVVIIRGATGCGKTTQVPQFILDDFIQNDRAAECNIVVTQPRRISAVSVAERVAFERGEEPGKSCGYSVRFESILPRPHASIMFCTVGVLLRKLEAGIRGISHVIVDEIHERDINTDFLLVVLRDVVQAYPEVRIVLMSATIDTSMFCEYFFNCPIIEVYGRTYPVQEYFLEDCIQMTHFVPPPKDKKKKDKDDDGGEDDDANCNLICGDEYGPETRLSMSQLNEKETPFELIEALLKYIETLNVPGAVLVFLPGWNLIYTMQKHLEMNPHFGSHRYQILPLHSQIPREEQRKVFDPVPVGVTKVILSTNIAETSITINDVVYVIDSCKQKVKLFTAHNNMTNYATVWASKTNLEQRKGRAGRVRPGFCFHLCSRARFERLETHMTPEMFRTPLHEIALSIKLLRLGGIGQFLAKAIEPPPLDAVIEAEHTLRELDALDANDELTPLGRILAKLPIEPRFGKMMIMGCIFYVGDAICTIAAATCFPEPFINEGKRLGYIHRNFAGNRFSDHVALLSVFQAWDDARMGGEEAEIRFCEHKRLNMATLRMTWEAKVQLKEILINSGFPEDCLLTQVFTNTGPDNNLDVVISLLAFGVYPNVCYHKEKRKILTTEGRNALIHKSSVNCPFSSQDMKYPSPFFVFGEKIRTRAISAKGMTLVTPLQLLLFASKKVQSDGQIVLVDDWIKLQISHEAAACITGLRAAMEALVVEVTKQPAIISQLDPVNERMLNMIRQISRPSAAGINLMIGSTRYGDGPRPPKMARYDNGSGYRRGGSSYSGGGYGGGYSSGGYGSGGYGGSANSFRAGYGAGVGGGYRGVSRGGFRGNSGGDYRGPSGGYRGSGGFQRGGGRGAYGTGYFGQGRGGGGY
Compound,DHX9 Biochemical Max Inhibition,IC50
Cn1nc(-c2ccccc2OCc2ccccc2)cc1C(=O)Nc1cc(Cl)cc(NS(C)(=O)=O)c1 [Example 139],59.1%,6650 nM
Cc1sc(C(=O)Nc2cc(Cl)cc(NS(C)(=O)=O)c2)cc1-c1ncc(F)cc1-c1cnco1 [Example 705],55.6,19.2 nM
CS(=O)(=O)Nc1cc(Br)cc(NC(=O)c2cnn(-c3ccc(N4CCOCC4)cn3)c2)c1 [Example 55],48.6%,9.9 nM
Cc1cc(N2CC(F)(F)C2)cnc1-c1cc(C(=O)Nc2cc(Cl)cc(NS(C)(=O)=O)c2)cn1C [Example 461],46.1,53.9 nM
CS(=O)(=O)Nc1cc(Cl)cc(NC(=O)c2cc(-c3ncccc3OCc3ccccc3)cs2)c1 [Example 29],65.2%,48.2 nM
Cn1cc(C(=O)Nc2cc(Cl)cc(NS(C)(=O)=O)c2)cc1-c1ccc(C2CCN(CC(F)(F)F)CC2)cn1 [Example 619],81.3,178 nM
CS(=O)(=O)Nc1cc(Cl)cc(NC(=O)c2cnn(C3CC4CCC(C3)O4)c2)c1 (centres unmarked) [Example 250],64.6%,185 nM
Cc1cc(N2CC(F)(F)C2)cnc1-n1cc(C(=O)Nc2cc(Cl)cc(NS(C)(=O)=O)c2)cc1C [Example 419],78.6,18.6 nM
CN(C)C(=O)N1CCN(c2ccc(-n3cc(C(=O)Nc4cc(Cl)cc(NS(C)(=O)=O)c4)cn3)nc2)CC1 [Example 89],64.9%,14.4 nM
"CS(=O)(=O)Nc1cc(Br)cc(NC(=O)c2cnn(-c3ncccn3)c2)c1 [Example 50, N-(3-bromo-5-(methylsulfonamido)phenyl)-1-(pyrimidin-2-yl)-1H-pyrazole-4-carboxamide]",55.5%,45 nM
Cn1cc(C(=O)Nc2cc(Cl)cc(NS(C)(=O)=O)c2)cc1-c1ccc(C2CCOCC2)cn1 [Example 704],78.1,12.5 nM
CCOc1ccc(-c2cc(C(=O)Nc3cc(Cl)cc(NS(C)(=O)=O)c3)cn2C)nc1 [Example 572],73.3,11.2 nM
CC(C)c1sc(C(=O)Nc2cc(Cl)cc(NS(C)(=O)=O)c2)cc1-c1ccccn1 [Example 233],80.3%,45.5 nM
CC(C)Oc1ccc(-c2csc(C(=O)Nc3cc(Cl)cc(NS(C)(=O)=O)c3)c2)nc1 [Example 459],65.7,–
Cc1sc(C(=O)Nc2cc(Cl)cc(NS(C)(=O)=O)c2)cc1-c1ncc(F)cc1F [Example 349],76.4%,23.7 nM
"CNc1cnc(-c2cc(C(=O)Nc3cc(Cl)cc(NS(C)(=O)=O)c3)sc2C)nc1 [Example 616, N-(3-chloro-5-methanesulfonamidophenyl)-5-methyl-4-[5-(methylamino)pyrimidin-2-yl]thiophene-2-carboxamide]",84.2,11.4 nM
Cc1cc(C(=O)Nc2cc(Cl)cc(NS(C)(=O)=O)c2)cn1-c1ncc(N2CCOCC2)cc1F [Example 320],72.2%,10.5 nM
CS(=O)(=O)Nc1cc(Cl)cc(NC(=O)c2cc3ccc(Cl)cc3s2)c1 [Example 293],55%,87.2 nM
CCS(=O)(=O)Nc1cc(Cl)cc(NC(=O)c2cc(-c3ncc(N4CC(F)(F)C4)cn3)c(C)s2)c1 [Example 463],77.1,8.5 nM
COC1CN(c2ccc(-c3cc(C(=O)Nc4cc(Cl)cc(NS(C)(=O)=O)c4)cn3C)nc2)C1 [Example 465],85.3,6.8 nM
Cn1cc(C(=O)Nc2cc(Cl)cc(NS(C)(=O)=O)c2)cc1-c1ncc(F)cc1OCc1cnnn1C [Example 726],88.1,17.5 nM
CS(=O)(=O)Nc1cc(Cl)cc(NC(=O)c2cc(-c3ncc(C(F)(F)F)cn3)cs2)c1 [Example 369],61.5%,57.6 nM
CN1CC[C@@H](Oc2cnc(-c3cc(C(=O)Nc4cc(Cl)cc(NS(C)(=O)=O)c4)cn3CC(F)(F)F)nc2)C1 [Example 641],71,9 nM
Cc1cccnc1-c1ccc(C(=O)Nc2cc(Cl)cc(NS(C)(=O)=O)c2)s1 [Example 386],59.2%,420 nM
CS(=O)(=O)Nc1cc(Br)cc(NC(=O)c2cnn(C3CCCCC3)c2)c1 [Example 48],54.1%,93.1 nM
Cc1sc(C(=O)Nc2cc(Cl)cc(NS(C)(=O)=O)c2)cc1-c1c(F)cncc1F [Example 362],88.6%,44.3 nM
Cn1cc(C(=O)Nc2cc(Cl)cc(NS(C)(=O)=O)c2)cc1-c1ncc(N2CCCC(F)(F)C2)cc1F [Example 483],56.4,67.3 nM
